Converted amounts (≈) assume the structure as drawn. The source made the active and inactive calls. No cut-off for these calls is given here.
Columns and labels:
[1] = biological target: T1, Tyrosine-protein kinase JAK1 (Homo sapiens, UniProt P23458)
[2] = Hepatic clearance in human hepatocytes after 1 to 4 hrs by LC/MS/MS analysis; type: ADME, cell-based, Liver, Hepatocyte
[3] = Oral bioavailability in cynomolgus monkey at 2 mg/kg by LC/MS/MS analysis; type: ADME, organism-based, Macaca fascicularis; conditions: in vivo
[4] = biological target: Voltage-gated inwardly rectifying potassium channel KCNH2 (Homo sapiens, UniProt Q12809)
Cytochrome P450 2D6 = Cytochrome P450 2D6 (Homo sapiens, UniProt P10635)
Cytochrome P450 2D6, sequence (P10635 whole entry): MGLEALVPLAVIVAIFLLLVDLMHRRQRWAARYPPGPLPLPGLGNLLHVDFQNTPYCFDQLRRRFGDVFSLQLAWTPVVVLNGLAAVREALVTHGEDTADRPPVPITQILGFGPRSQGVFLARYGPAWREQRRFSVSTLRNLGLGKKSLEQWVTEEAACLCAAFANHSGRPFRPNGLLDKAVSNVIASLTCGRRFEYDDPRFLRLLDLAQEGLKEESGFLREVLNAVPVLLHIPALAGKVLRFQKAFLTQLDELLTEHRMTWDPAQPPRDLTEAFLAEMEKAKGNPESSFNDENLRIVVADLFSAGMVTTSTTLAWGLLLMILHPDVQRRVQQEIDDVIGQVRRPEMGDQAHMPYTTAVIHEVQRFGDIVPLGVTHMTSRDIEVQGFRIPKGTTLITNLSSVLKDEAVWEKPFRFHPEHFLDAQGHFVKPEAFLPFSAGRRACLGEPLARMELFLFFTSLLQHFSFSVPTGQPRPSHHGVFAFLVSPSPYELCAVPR

Cytochrome P450 2C9 = Cytochrome P450 2C9 (Homo sapiens, UniProt P11712)
[5] = Metabolic stability in dog hepatocytes assessed as hepatic clearance; type: ADME, cell-based, Canis lupus familiaris, Liver, Hepatocyte
[6] = Clearance in Sprague-Dawley rat at 0.4 mg/kg, iv by LC/MS/MS analysis; type: ADME, organism-based; set-up: dose 0.4 mg/kg, route intravenous; conditions: in vivo
[7] = Cmax in Sprague-Dawley rat at 2 mg/kg, po by LC/MS/MS analysis; type: ADME, organism-based; set-up: dose 2 mg/kg, route oral; conditions: in vivo
[8] = Clearance in cynomolgus monkey at 0.4 mg/kg, iv by LC/MS/MS analysis; type: ADME, organism-based, Macaca fascicularis; set-up: dose 0.4 mg/kg, route intravenous; conditions: in vivo
[9] = biological target: T2, Non-receptor tyrosine-protein kinase TYK2 (Homo sapiens, UniProt P29597)
T2 sequence (P29597 whole entry): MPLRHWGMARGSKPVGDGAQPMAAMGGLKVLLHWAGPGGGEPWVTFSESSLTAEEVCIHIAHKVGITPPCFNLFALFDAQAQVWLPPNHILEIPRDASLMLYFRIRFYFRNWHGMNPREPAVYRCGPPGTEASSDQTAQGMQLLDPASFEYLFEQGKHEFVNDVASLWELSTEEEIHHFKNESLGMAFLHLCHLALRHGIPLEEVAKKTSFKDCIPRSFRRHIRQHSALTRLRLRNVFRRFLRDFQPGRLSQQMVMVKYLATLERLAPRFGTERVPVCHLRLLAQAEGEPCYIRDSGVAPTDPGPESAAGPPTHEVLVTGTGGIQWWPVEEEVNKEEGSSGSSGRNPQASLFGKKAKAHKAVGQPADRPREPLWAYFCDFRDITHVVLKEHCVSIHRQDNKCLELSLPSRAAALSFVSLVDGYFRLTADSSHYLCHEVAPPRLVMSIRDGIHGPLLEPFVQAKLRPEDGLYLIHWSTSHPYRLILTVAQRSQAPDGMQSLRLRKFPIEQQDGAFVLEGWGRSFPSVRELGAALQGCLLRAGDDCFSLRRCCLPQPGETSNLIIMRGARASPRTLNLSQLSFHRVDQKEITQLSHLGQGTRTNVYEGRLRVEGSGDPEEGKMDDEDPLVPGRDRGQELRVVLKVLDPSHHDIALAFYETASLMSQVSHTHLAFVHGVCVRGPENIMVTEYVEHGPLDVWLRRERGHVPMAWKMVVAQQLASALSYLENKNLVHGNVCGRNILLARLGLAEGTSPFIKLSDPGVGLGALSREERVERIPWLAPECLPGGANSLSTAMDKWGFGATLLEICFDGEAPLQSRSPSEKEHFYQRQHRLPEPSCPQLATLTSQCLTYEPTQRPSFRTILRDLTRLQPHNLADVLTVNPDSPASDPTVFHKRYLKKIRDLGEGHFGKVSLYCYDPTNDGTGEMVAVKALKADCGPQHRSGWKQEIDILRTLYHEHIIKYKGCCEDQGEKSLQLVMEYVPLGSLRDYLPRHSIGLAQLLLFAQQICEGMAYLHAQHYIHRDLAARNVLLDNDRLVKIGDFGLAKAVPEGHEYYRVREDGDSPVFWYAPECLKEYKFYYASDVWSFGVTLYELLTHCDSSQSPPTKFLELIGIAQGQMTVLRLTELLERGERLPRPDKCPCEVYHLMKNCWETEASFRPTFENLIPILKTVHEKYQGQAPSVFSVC

[10] = Metabolic stability in rat hepatocytes assessed as hepatic clearance; type: ADME, cell-based, Liver, Hepatocyte
[11] = Hepatic clearance in human liver microsomes by LC/MS/MS analysis; type: ADME, Microsome
[12] = AUC in Beagle dog at 2 mg/kg, po by LC/MS/MS analysis; type: ADME, organism-based, Canis lupus familiaris; set-up: dose 2 mg/kg, route oral; conditions: plasma
Rattus norvegicus [13] = test: Antiarthritic activity in Lewis rat collagen-induced arthritis model assessed as decrease in mean ankle thicknesses at 500 mg/kg, po qd administered for 11 days; type: functional, organism-based; set-up: dose 500 mg/kg
[14] = Plasma protein binding in dog; type: ADME, cell-free, Canis lupus familiaris; conditions: read-out: PPB (converted)
[15] = biological target: T2, Non-receptor tyrosine-protein kinase TYK2; remark: listed apart in the source
[16] = AUC in Lewis rat collagen-induced arthritis model at 20 mg/kg, po administered on day 20; type: ADME, organism-based; set-up: dose 20 mg/kg, route oral; conditions: in vivo
[17] = Plasma protein binding in rat; type: ADME, cell-free; conditions: read-out: PPB (converted)
[18] = Thermodynamic solubility in aqueous buffer at pH 2; type: physicochemical; conditions: read-out: Therm_solubility
[19] = Apparent permeability across apical to basolateral side in dog MDCK cells; type: ADME, cell-based, Canis lupus familiaris
[20] = Oral bioavailability in Beagle dog at 2 mg/kg by LC/MS/MS analysis; type: ADME, organism-based, Canis lupus familiaris; conditions: Beagle, in vivo
[21] = biological target: Tyrosine-protein kinase JAK3 (Homo sapiens, UniProt P52333)
Tyrosine-protein kinase JAK3, sequence (P52333 whole entry): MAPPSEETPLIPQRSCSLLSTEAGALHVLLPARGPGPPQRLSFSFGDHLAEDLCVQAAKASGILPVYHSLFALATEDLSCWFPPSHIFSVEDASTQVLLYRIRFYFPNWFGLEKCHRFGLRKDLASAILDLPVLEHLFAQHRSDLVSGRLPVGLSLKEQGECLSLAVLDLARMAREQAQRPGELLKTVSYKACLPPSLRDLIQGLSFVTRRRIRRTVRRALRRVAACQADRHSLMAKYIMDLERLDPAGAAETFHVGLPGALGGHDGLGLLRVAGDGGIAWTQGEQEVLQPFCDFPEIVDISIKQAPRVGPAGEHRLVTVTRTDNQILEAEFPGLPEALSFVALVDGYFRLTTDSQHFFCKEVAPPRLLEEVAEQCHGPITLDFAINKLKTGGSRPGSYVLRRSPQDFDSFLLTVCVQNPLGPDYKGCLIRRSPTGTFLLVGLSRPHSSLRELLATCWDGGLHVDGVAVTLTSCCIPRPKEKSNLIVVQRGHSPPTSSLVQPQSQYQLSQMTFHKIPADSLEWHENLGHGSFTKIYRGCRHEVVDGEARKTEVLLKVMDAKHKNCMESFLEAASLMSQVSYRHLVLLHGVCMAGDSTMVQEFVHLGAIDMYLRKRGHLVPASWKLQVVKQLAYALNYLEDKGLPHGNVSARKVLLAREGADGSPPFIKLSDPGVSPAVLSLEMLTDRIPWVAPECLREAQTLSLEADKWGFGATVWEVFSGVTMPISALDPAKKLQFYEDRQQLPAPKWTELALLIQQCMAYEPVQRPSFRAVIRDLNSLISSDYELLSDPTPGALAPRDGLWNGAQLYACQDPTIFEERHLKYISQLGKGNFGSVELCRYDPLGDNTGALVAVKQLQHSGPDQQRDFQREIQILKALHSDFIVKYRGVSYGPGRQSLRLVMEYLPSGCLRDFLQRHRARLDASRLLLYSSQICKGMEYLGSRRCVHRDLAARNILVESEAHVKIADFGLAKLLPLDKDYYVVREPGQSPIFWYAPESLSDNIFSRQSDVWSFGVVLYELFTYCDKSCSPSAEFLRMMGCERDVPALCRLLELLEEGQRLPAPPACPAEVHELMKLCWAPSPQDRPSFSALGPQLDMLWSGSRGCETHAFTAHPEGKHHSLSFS

[22] = biological target: T1, Tyrosine-protein kinase JAK1; remark: listed apart in the source
Rattus norvegicus [23] = test: Antiarthritic activity in Lewis rat collagen-induced arthritis model assessed as decrease in mean ankle thicknesses at 100 mg/kg, po qd administered for 11 days; type: functional, organism-based; set-up: dose 100 mg/kg
[24] = Half life in cynomolgus monkey at 0.4 mg/kg, iv by LC/MS/MS analysis; type: ADME, organism-based, Macaca fascicularis; set-up: dose 0.4 mg/kg, route intravenous; conditions: in vivo
[25] = Plasma protein binding in cynomolgus monkey; type: ADME, cell-free, Macaca fascicularis; conditions: read-out: PPB (converted)
[26] = AUC in Lewis rat collagen-induced arthritis model at 100 mg/kg, po administered on day 20; type: ADME, organism-based; set-up: dose 100 mg/kg, route oral; conditions: in vivo
Cytochrome P450 2C19 = Cytochrome P450 2C19 (Homo sapiens, UniProt P33261)
Cytochrome P450 2C19, sequence (P33261 whole entry): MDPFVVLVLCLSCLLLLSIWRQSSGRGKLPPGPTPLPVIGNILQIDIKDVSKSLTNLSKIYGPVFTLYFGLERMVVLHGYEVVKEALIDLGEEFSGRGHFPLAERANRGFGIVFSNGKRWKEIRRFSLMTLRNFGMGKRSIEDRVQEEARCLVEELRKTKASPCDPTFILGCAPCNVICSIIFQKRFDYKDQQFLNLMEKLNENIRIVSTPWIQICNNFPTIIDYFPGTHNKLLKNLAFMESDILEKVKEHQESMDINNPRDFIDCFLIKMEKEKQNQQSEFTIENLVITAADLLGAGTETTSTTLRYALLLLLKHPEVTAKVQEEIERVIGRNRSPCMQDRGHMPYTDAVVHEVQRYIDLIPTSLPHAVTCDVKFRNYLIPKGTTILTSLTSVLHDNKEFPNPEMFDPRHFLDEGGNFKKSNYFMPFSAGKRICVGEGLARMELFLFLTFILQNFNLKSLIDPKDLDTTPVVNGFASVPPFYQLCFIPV

Cytochrome P450 1A2 = biological target: T3, Cytochrome P450 1A2 (Homo sapiens, UniProt P05177); test: Reversible inhibition of CYP1A2 in human liver microsomes using phenacetin as substrate by LC/MS/MS analysis; type: ADME, Microsome
T3 sequence (P05177 whole entry): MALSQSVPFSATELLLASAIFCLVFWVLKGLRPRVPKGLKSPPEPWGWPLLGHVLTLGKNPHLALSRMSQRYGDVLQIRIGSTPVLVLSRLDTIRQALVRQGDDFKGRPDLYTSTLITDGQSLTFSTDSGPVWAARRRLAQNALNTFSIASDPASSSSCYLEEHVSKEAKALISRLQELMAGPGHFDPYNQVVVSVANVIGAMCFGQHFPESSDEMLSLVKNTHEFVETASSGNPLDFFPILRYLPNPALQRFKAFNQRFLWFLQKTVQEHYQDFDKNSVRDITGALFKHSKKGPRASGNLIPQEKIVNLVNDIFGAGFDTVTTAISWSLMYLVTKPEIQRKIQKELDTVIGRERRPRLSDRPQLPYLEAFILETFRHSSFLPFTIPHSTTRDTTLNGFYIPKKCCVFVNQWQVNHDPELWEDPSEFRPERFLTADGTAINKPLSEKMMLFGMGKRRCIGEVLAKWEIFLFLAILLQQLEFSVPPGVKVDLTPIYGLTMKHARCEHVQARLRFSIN

[27] = Cmax in Beagle dog at 2 mg/kg, po by LC/MS/MS analysis; type: ADME, organism-based, Canis lupus familiaris; set-up: dose 2 mg/kg, route oral; conditions: in vivo
[28] = Half life in Sprague-Dawley rat at 0.4 mg/kg, iv by LC/MS/MS analysis; type: ADME, organism-based; set-up: dose 0.4 mg/kg, route intravenous; conditions: in vivo
Cytochrome P450 3A4 [29] = biological target: T4, Cytochrome P450 3A4 (Homo sapiens, UniProt P08684); test: Reversible inhibition of CYP3A4 in human liver microsomes using testosterone as substrate by LC/MS/MS analysis; type: ADME, Microsome
T4 sequence (P08684 whole entry): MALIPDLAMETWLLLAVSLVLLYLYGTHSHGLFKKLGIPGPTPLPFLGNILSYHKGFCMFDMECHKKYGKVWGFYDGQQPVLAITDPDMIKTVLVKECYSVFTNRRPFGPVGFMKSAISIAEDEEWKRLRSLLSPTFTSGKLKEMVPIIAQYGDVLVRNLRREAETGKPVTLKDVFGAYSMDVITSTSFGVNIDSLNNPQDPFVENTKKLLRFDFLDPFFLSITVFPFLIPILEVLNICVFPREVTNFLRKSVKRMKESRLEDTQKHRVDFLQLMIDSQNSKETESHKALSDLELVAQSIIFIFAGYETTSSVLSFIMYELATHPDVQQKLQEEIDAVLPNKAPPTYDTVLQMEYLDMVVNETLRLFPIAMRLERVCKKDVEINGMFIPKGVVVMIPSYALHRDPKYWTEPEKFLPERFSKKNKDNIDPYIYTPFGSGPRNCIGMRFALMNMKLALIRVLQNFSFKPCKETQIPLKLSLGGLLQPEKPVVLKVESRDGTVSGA

Rattus norvegicus [30] = test: Antiarthritic activity in Lewis rat collagen-induced arthritis model assessed as decrease in mean ankle thicknesses at 20 mg/kg, po qd administered for 11 days; type: functional, organism-based; set-up: dose 20 mg/kg
[31] = AUC in Lewis rat collagen-induced arthritis model at 500 mg/kg, po administered on day 20; type: ADME, organism-based; set-up: dose 500 mg/kg, route oral; conditions: in vivo
[32] = Cmax in cynomolgus monkey at 2 mg/kg, po by LC/MS/MS analysis; type: ADME, organism-based, Macaca fascicularis; set-up: dose 2 mg/kg, route oral; conditions: in vivo
[33] = AUC in Lewis rat collagen-induced arthritis model at 100 mg/kg, po administered on day 10; type: ADME, organism-based; set-up: dose 100 mg/kg, route oral; conditions: in vivo
[34] = Oral bioavailability in Sprague-Dawley rat at 2 mg/kg by LC/MS/MS analysis; type: ADME, organism-based; conditions: Sprague-Dawley, in vivo
[35] = Apparent permeability across basolateral to apical side in dog MDCK cells; type: ADME, cell-based, Canis lupus familiaris
Cytochrome P450 3A4 [36] = biological target: T4, Cytochrome P450 3A4; test: Reversible inhibition of CYP3A4 in human liver microsomes using midazolam as substrate by LC/MS/MS analysis; type: ADME, Microsome
[37] = Clearance in Beagle dog at 0.4 mg/kg, iv by LC/MS/MS analysis; type: ADME, organism-based, Canis lupus familiaris; set-up: dose 0.4 mg/kg, route intravenous; conditions: in vivo
[38] = Metabolic stability in monkey hepatocytes assessed as hepatic clearance; type: ADME, cell-based, Macaca mulatta, Liver, Hepatocyte; conditions: rhesus monkey
[39] = AUC in Lewis rat collagen-induced arthritis model at 500 mg/kg, po administered on day 10; type: ADME, organism-based; set-up: dose 500 mg/kg, route oral; conditions: in vivo
[40] = AUC in cynomolgus monkey at 2 mg/kg, po by LC/MS/MS analysis; type: ADME, organism-based, Macaca fascicularis; set-up: dose 2 mg/kg, route oral; conditions: plasma
[41] = system: Platelet-derived growth factor receptor alpha (Homo sapiens), P16234 [V561D]; test: Inhibition of PDGFRalpha V561D mutant (unknown origin) at 1 uM
[42] = AUC in Sprague-Dawley rat at 2 mg/kg, po by LC/MS/MS analysis; type: ADME, organism-based; set-up: dose 2 mg/kg, route oral; conditions: plasma
[43] = Half life in Beagle dog at 0.4 mg/kg, iv by LC/MS/MS analysis; type: ADME, organism-based, Canis lupus familiaris; set-up: dose 0.4 mg/kg, route intravenous; conditions: in vivo
[44] = AUC in Lewis rat collagen-induced arthritis model at 20 mg/kg, po administered on day 10; type: ADME, organism-based; set-up: dose 20 mg/kg, route oral; conditions: in vivo
[45] = Thermodynamic solubility in aqueous buffer at pH 7.4; type: physicochemical; conditions: read-out: Therm_solubility
[46] = biological target: T1, Tyrosine-protein kinase JAK1; remark: listed apart in the source

T1 sequence (P23458 whole entry): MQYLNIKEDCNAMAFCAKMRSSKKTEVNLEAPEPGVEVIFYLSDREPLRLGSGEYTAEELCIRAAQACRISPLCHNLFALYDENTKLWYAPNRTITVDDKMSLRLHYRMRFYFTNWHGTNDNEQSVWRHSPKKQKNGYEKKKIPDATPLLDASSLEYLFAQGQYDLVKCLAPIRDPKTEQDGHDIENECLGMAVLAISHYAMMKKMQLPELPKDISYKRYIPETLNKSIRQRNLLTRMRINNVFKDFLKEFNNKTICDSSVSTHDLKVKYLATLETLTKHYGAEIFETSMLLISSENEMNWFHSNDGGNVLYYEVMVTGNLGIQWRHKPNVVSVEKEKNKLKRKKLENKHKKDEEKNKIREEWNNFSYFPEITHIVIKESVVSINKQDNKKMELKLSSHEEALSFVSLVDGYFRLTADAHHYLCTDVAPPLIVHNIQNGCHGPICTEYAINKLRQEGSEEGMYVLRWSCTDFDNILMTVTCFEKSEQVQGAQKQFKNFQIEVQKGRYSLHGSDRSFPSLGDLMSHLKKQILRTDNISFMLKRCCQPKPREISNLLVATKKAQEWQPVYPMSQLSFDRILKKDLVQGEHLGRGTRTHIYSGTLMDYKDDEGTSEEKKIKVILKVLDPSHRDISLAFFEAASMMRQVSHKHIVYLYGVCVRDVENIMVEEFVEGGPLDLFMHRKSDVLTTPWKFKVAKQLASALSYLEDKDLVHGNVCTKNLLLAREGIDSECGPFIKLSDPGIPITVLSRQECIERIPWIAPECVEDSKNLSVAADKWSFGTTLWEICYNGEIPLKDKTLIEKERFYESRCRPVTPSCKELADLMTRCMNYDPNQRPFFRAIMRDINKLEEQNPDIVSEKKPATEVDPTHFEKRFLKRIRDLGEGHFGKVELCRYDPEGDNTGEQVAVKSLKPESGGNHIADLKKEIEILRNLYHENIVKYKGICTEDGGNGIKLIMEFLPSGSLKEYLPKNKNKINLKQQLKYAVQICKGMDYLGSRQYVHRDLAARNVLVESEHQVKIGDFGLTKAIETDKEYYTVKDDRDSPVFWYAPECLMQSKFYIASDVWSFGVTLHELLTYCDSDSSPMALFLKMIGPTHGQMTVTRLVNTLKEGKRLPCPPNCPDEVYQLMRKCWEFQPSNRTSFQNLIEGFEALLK

## C[C@@H](O)c1nc2cnc3[nH]ccc3c2n1[C@H]1CC[C@H](C#N)CC1
[1]
  EC50: 120 nM
[2]
  CLhep predicted: 1.7 mL/min/kg
[3]
  bioavailability: 65%
[4]
  IC50: > 100 µM
Cytochrome P450 2D6
  IC50: > 10 µM
Cytochrome P450 2C9
  IC50: > 10 µM
[5]
  CLhep predicted: 3 mL/min/kg
[6]
  clearance: 60 mL/min/kg
[7]
  Cmax: 420 nM
[8]
  clearance: 18 mL/min/kg
[9]
  Ki: 12 nM
[10]
  CLhep predicted: 3.7 mL/min/kg
[11]
  CLhep predicted: 3.3 mL/min/kg
[12]
  AUC: 8.3 µM·h
Rattus norvegicus [13]
  Activity: Active
[14]
  fraction unbound: 0.53
[15]
  EC50: 5600 nM
[16]
  AUC: 10.6 µM·h
[17]
  fraction unbound: 0.62
[18]
  solubility thermodynamic: > 4 mM
[19]
  Papp A→B: 2.7 ×10⁻⁶ cm/s
[20]
  bioavailability: 119%
[21]
  Ki: 280 nM
[22]
  Ki: 1.9 nM
Rattus norvegicus [23]
  Activity: Active
[24]
  half-life: 102 min
[25]
  fraction unbound: 0.4
[26]
  AUC: 50.1 µM·h
Cytochrome P450 2C19
  IC50: > 10 µM
Cytochrome P450 1A2
  IC50: > 10 µM
[27]
  Cmax: 2100 nM
[28]
  half-life: 30 min
Cytochrome P450 3A4 [29]
  IC50: > 10 µM
Rattus norvegicus [30]
  Activity: Active
[31]
  AUC: 269 µM·h
[32]
  Cmax: 630 nM
[33]
  AUC: 59.6 µM·h
[34]
  bioavailability: 52%
[35]
  Papp B→A: 4.7 ×10⁻⁶ cm/s
Cytochrome P450 3A4 [36]
  IC50: 7.9 µM
[37]
  clearance: 16 mL/min/kg
[38]
  CLhep predicted: 2.4 mL/min/kg
[39]
  AUC: 467 µM·h
[40]
  AUC: 3.9 µM·h
[41]
  inhibition: 55%
[42]
  AUC: 0.94 µM·h
[43]
  half-life: 132 min
[44]
  AUC: 15 µM·h
[45]
  solubility thermodynamic: 1900 µM (≈ 588 µg/mL)
[46]
  EC50: 130 nM

## C[C@@H](O)c1nc2cnc3[nH]ccc3c2n1[C@H]1CC[C@H](NCC(F)(F)F)CC1
[1]
  EC50: 28 nM
[2]
  CLhep predicted: 2 mL/min/kg
[4]
  IC50: > 100 µM
Cytochrome P450 2D6
  IC50: > 10 µM
Cytochrome P450 2C9
  IC50: > 10 µM
[5]
  CLhep predicted: 2.3 mL/min/kg
[6]
  clearance: 36 mL/min/kg
[7]
  Cmax: 960 nM
[9]
  Ki: 3.4 nM
[10]
  CLhep predicted: 11 mL/min/kg
[11]
  CLhep predicted: 3.3 mL/min/kg
[12]
  AUC: 9.9 µM·h
[14]
  fraction unbound: 0.45
[15]
  EC50: 310 nM
[17]
  fraction unbound: 0.44
[18]
  solubility thermodynamic: 3.9 mM (≈ 1490 µg/mL)
[19]
  Papp A→B: 6.7 ×10⁻⁶ cm/s
[20]
  bioavailability: 139%
[21]
  Ki: 76 nM
[22]
  Ki: 0.8 nM
[25]
  fraction unbound: 0.35
Cytochrome P450 2C19
  IC50: > 10 µM
Cytochrome P450 1A2
  IC50: > 10 µM
[27]
  Cmax: 2100 nM
[28]
  half-life: 30 min
Cytochrome P450 3A4 [29]
  IC50: > 10 µM
[34]
  bioavailability: 54%
[35]
  Papp B→A: 10 ×10⁻⁶ cm/s
Cytochrome P450 3A4 [36]
  IC50: > 10 µM
[37]
  clearance: 13 mL/min/kg
[38]
  CLhep predicted: 26 mL/min/kg
[42]
  AUC: 1.4 µM·h
[43]
  half-life: 102 min
[45]
  solubility thermodynamic: 130 µM (≈ 49.6 µg/mL)
[46]
  EC50: 29 nM
